Experimental data taken from the supplement of paper PMC11451515.

Legend:
SEM cells [1] = test: AUC of viability dose-response curve (% viability x log10 dose units); higher = less sensitive; conditions: 48 h
Procedure, shortened: (§1)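 Leukemia cells adapted to each medium were seeded at 500 or 1000 cells/well in 1536-well plates and dosed with library compounds in DMSO at 11 threefold doses from 47 μM to 0.79 nM for 48 h at 37°C. CellTiter-Glo One luminescence was normalised per plate to DMSO and cell-free wells, then fitted with a four-parameter log-logistic model over log10 doses. Area under the curve was taken from this fit by the trapezoidal rule, with curves above full viability scaled and curves failing quality control removed.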

P12-Ichikawa [2] = test: as above; conditions: 48 h
Procedure, shortened: as §1

NOMO1 [3] = test: as above; conditions: 48 h
Procedure, shortened: as §1

SEM cells [4] = test: cell viability relative to DMSO control; higher = less cytotoxic; conditions: 48 h
Procedure, shortened: (§2)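 Leukemia cells (NOMO1 or SEM, 500 cells/well; P12-Ichikawa, 1000 cells/well) were seeded in 5 μl in 1536-well plates after at least four passages of adaptation to each medium. They received library compounds in DMSO by pin dosing, 11 threefold points from 47 μM to 0.79 nM. Luminescence with CellTiter-Glo One was read after 48 h at 37°C. Viability is stated per plate relative to DMSO wells, with cell-free wells as background.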

P12-Ichikawa [5] = test: as above; conditions: HPLM + 10% dialyzed FBS, 48 h
Procedure, shortened: as §2

NOMO1 [6] = test: as above; conditions: RPMI 5 mM glucose + 10% dialyzed FBS, 48 h
Procedure, shortened: as §2

CCOC(=O)c1c(C)n(C)c2ccc(O)cc12
Conditions | AUC of viability dose-response curve | cell viability [%]
NOMO1 [3], HPLM + 10% dialyzed FBS | 468 | –
NOMO1 [3], RPMI 5 mM glucose + 10% FBS | 455 | –
NOMO1 [3], RPMI 5 mM glucose + 10% dialyzed FBS | 461 | –
NOMO1 [6], 0.000781 µM | – | 115
NOMO1 [6], 0.00234 µM | – | 120
NOMO1 [6], 0.00702 µM | – | 115
NOMO1 [6], 0.0211 µM | – | 113
NOMO1 [6], 0.0632 µM | – | 125
NOMO1 [6], 0.19 µM | – | 119
NOMO1 [6], 0.569 µM | – | 124
NOMO1 [6], 1.71 µM | – | 120
NOMO1 [6], 5.12 µM | – | 108
NOMO1 [6], 15.4 µM | – | 101
NOMO1 [6], 46.1 µM | – | 96.6
P12-Ichikawa [2], HPLM + 10% dialyzed FBS | 456 | –
P12-Ichikawa [2], RPMI 5 mM glucose + 10% FBS | 436 | –
P12-Ichikawa [2], RPMI 5 mM glucose + 10% dialyzed FBS | 443 | –
P12-Ichikawa [5], 0.000781 µM | – | 122
P12-Ichikawa [5], 0.00234 µM | – | 124
P12-Ichikawa [5], 0.00702 µM | – | 124
P12-Ichikawa [5], 0.0211 µM | – | 123
P12-Ichikawa [5], 0.0632 µM | – | 128
P12-Ichikawa [5], 0.19 µM | – | 122
P12-Ichikawa [5], 0.569 µM | – | 127
P12-Ichikawa [5], 1.71 µM | – | 123
P12-Ichikawa [5], 5.12 µM | – | 107
P12-Ichikawa [5], 15.4 µM | – | 109
P12-Ichikawa [5], 46.1 µM | – | 90.3
SEM cells [1], HPLM + 10% dialyzed FBS | 447 | –
SEM cells [1], RPMI 5 mM glucose + 10% FBS | 462 | –
SEM cells [1], RPMI 5 mM glucose + 10% dialyzed FBS | 463 | –

cell viability [%], SEM cells [4]
Conditions | HPLM + 10% dialyzed FBS | RPMI 5 mM glucose + 10% FBS | RPMI 5 mM glucose + 10% dialyzed FBS
0.000781 µM | 99.8 | 115 | 115
0.00234 µM | 95.8 | 121 | 117
0.00702 µM | 97.6 | 107 | 106
0.0211 µM | 96 | 110 | 118
0.0632 µM | 95.6 | 101 | 113
0.19 µM | 105 | 119 | 95.5
0.569 µM | 97 | 108 | 106
1.71 µM | 103 | 120 | 112
5.12 µM | 107 | 114 | 113
15.4 µM | 113 | 124 | 117
46.1 µM | 104 | 111 | 116
